Data reported in ChEMBL document CHEMBL1201862, “PubChem BioAssay data set” (2004).
Active and inactive are the calls of the source. The rule behind the calls is not given here.

Legend:
[1] = target: Cytochrome P450 3A4 (Homo sapiens, UniProt P08684); settings: Potency;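 note: confirmatory qHTS run detecting inhibitors and substrates of CYP3A4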
[2] = target: Genome polyprotein (dengue virus type 2, UniProt P29990); assay: Dengue-2 NS5 methyltransferase inhibitors, primary screen, biochemical, confirmation dose response (AID 588689); type: functional
Genome polyprotein, sequence (P29990 2492-3391 limits assumed): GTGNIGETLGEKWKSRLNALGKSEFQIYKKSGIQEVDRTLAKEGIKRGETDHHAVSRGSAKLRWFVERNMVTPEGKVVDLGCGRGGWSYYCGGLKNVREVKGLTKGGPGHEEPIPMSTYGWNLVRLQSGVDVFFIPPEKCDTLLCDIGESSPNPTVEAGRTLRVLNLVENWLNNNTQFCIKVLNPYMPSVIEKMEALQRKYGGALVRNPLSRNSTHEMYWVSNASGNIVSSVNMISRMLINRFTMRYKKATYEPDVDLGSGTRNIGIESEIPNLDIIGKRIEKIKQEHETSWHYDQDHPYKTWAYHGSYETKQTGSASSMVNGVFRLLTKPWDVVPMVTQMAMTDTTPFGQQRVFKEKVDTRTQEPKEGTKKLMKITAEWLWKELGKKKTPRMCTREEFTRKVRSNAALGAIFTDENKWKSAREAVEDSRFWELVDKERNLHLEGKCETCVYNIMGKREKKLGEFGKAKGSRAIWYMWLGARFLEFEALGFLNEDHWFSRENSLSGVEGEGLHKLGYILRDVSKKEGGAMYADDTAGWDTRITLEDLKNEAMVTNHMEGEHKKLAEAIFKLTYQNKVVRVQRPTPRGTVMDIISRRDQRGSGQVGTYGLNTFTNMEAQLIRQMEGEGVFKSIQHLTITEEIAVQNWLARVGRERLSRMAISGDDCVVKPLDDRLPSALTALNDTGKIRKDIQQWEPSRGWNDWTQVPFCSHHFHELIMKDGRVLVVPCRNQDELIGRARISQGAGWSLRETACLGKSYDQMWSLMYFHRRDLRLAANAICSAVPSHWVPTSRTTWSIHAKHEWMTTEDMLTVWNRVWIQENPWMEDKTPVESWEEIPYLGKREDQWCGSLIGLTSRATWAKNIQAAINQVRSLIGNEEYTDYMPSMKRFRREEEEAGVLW

[3] = target: T1, Short transient receptor potential channel 4 (Mus musculus, UniProt Q9QUQ5); assay: mouse TRPC4 channel activators, dose response, cell-based, HEK293 TRPC4/mu-opioid, Fluo-4 calcium (AID 434937); type: functional
T1 sequence (Q9QUQ5 whole entry): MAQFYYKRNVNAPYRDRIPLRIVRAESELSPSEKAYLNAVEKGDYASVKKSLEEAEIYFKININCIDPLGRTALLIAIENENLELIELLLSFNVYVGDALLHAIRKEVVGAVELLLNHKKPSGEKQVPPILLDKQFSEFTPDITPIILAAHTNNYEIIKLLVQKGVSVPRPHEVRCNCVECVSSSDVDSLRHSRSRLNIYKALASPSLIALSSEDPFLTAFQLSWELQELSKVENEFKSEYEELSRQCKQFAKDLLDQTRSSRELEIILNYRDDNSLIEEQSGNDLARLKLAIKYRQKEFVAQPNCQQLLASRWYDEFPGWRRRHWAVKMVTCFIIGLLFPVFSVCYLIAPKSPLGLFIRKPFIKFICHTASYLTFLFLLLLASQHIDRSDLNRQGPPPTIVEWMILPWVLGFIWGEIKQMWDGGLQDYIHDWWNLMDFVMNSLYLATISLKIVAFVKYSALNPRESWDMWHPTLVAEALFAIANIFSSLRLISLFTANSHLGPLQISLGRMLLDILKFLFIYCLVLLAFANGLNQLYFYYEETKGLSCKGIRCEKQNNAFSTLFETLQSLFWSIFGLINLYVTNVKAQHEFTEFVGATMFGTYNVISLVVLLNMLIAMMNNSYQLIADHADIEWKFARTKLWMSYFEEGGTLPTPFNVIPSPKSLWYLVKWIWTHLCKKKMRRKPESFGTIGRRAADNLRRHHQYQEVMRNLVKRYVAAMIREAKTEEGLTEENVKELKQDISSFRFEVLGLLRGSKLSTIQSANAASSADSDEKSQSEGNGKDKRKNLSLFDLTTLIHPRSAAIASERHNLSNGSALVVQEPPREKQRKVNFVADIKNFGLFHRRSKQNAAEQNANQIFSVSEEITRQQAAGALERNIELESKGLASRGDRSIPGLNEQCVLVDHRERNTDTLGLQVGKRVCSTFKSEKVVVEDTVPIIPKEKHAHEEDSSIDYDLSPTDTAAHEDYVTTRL

[4] = HEp-2 cell cytotoxicity, dose response, cytotoxicity control for RSV inhibitor project, HTS (AID 2410); type: functional; settings: human respiratory syncytial virus
[5] = cells

Cytochrome P450 3A4, sequence (P08684 whole entry): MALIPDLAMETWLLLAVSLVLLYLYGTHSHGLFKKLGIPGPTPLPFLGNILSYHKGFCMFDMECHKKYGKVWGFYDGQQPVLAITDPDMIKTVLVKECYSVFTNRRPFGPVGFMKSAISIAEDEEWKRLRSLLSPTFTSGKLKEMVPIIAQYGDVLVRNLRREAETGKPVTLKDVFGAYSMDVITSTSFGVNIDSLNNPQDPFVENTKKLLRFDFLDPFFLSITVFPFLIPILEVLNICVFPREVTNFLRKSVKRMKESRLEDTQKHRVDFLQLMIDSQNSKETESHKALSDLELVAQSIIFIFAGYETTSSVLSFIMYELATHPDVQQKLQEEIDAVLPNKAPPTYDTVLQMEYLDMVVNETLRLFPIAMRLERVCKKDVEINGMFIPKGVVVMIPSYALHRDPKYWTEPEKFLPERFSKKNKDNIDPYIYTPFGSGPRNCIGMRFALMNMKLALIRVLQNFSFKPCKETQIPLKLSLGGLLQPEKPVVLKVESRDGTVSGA

Compound | AC50 [1] | EC50 [3] | also measured
Cc1c(N=C=O)cccc1N=C=O | 15.8 µM (inconclusive) | – | –
COc1ccc(-c2ccccc2C2NC(C(=O)O)CCC2C)cc1 (stereo unspecified) | 5.01 µM (inconclusive) | – | –
O=C1C=C2C=CC3C[C@@]2(O1)C1CCCCN31 (stereo partly specified) | 31.6 µM (inconclusive) | – | –
CSc1nc(O)c(C(c2ccc(OC(C)C)cc2)c2c(O)nc(SC)nc2O)c(O)n1 | – | – | IC50 [2]: 32.9 µM (active)
Cc1csc2c(N3CCN(C(=O)Nc4ccccc4)CC3)ncnc12 | – | 1.68 µM (active) | –
CCOC(=O)CN1C(=O)N[C@@H](c2cccc(F)c2)C(C(C)=O)=C1C | – | – | CC50 [4]: 44.1 µM (active); IC50 [5]: 12.8 µM (active)
O=Nc1ccc(Nc2ccccc2)cc1 | 20 µM (inconclusive) | – | –
COCCn1nnnc1C(c1cc2ccc(OC)cc2nc1O)N1CCN(C2CCCCC2)CC1 (stereo unspecified) | – | 3.76 µM (active) | –
Cc1ccc(NC(=S)NC2CC3CCC(C2)N3Cc2ccco2)c(C)c1 (stereo unspecified) | – | 5.96 µM (active) | –
CCCCN(CC)CCCNC(=O)c1csc2c1CCCCC2 | – | 1.19 µM (active) | –
COC(=O)CNC(=O)[C@@]1(C)C=C[C@@H](Cc2ccccc2)N1C(C)=O | 20 µM (inconclusive) | – | –
CCOc1cc(OCC)c(C(C)=O)cc1OCC | 15.8 µM (inconclusive) | – | –
c1ccc(-c2ccc(CN3C[C@@H]4C(c5ccccc5)C5(c6cccnc6)CC4(C5)[C@H]3c3ccccc3)cc2)cc1 (stereo partly specified) | 15.8 µM (inconclusive) | – | –
CN(C)C(CNC(=O)/C=C/c1cccc(Cl)c1)c1ccccc1 (stereo unspecified) | – | 0.133 µM (active) | –
CC1=NN(c2ccc(Br)cc2)C(=O)/C1=C/c1ccc(-c2ccccc2C(=O)O)o1 | – | – | IC50 [2]: 30 µM (active)
